Assay results taken from US7195788B2, “Pesticidal compositions from prunus” (Premier Botanicals, Ltd., priority 2001, dated 2007).
Where “and” joins values, the source holds several entries; their conditions need not be identical. Equal entries are not always repeated.

Assays:
Sphaerotheca pannosa = assay: Powdery mildew development on rose leaves after spray treatment; assay type: in vivo; conditions: for Powdery mildew disease rating on rose leaves, per repetition: scale 1 = no symptoms, 5 = 100% infection, Prunus 1 crude, Prunus 2 and SB at 1000 ppm, repetitions 1-3
Protocol: Prunus compositions (including crude Prunus virginiana hydrodistillate, collected in vessel 112 of FIG. 2, having the SPME determined composition of the first entry in Table 1) were tested on diseased plants and were evaluated as a fungicide for controlling Rose powdery mildew. The experiment was set up in a complete randomized block design with three repetitions and four treatments. Treatments were as follows: Prunus 1: crude hydrodistillate from Prunus biomass, Prunus 2: benzaldehyde separated from the crude hydrodistillate at 1,000 ppm, SB-synthetic benzaldehyde, and control-distilled water.
Treatments were applied to infected leaves twice (one week apart) in late July, and once in late August. All leaves were covered with mildew mycelia at the time of the first treatment. One compound leaf was treated with each treatment. Leaves from different stems were treated for each of the three repetition. The treatments were applied with a mist sprayer until run off. Disease development was rated on a scale of 1 to 5, where 1 indicated no symptoms and 5 indicated 100-percent infected. The first disease rating was obtained at the time of the late August treatment, followed by a second disease rating in early September. […] The crude distillate from the Prunus biomass was effective in eliminating or inhibiting the growth of the fungus on the rose leaves. […] The crude hydrodistillate containing all of the volatile compounds identified in Example 1 appeared to act synergistically, relative to purified or synthetic benzaldehyde, to control the rose mildew fungus.

Cytospora chrysosperma = assay: In vitro mycelia growth of Cytospora chrysosperma on potato dextrose agar containing the test material; assay type: cell-based; conditions: 23° C.
Protocol: The effectiveness of Prunus compositions was compared to the effectiveness of synthetic benzaldehyde in stopping or restricting the growth of the Cytospora fungus on potato dextrose agar. The volatile compounds of a Prunus virginiana hydrodistillate were concentrated by counter-flow flash evaporation (i.e. collected from vessel 122 as shown in FIG. 2) to provide a concentrated extract that was further processed by distillation to remove hydrocyanic acid. The resulting extract was analyzed and found to contain 1.2% trans-2-hexenal, 98.5% benzaldehyde, and traces of other compounds originally in the hydrodistillate. This extract was reconstituted in distilled water to provide a solution containing approximately 10,000 ppm of Prunus volatiles. This stock solution was used to prepare a series of agar solutions containing between 0 and 10,000 ppm Prunus volatiles. The Prunus material was blended into the agar after autoclaving and prior to pouring the agar into Petri plates. […] All plates were inoculated with a 5-mm potato dextrose agar plug from a two-week-old culture of C. chrysosperma.

Uncinula necator = assay: Powdery mildew development on 'Pinot Noir' grape leaves after spray treatment; assay type: in vivo; conditions: for Powdery mildew disease rating on grape leaves, per repetition: scale 1 = no symptoms, 5 = 100% infected, Prunus 1 crude, Prunus 2 and SB at 1000 ppm, repetitions 1-3
Protocol: Prunus compositions (including crude Prunus virginiana hydrodistillate, collected in vessel 112 of FIG. 2, having the analysis of the first entry of Table 1) were tested on grape plants (Pinot Noir) infected with powdery mildew. The experiment was set up in a complete randomized block design with three repetition, four treatments each, with three observations per treatment. Treatments were as follows: Prunus 1: crude hydrodistillate from Prunus biomass, Prunus 2: benzaldehyde separated from the hydrodistillate at 1,000 ppm, SB-synthetic benzaldehyde, and control-distilled water.
Treatments were applied to infected leaves in early August and in early September. Three adjacent leaves on a vine were sprayed with each treatment and replicated on three different vines (plants). The solutions were applied with a mist sprayer until run off. The first disease reading was obtained in early September, one month after the first treatment application. The second disease reading was obtained in early October, about one month after the second treatment application.
Disease ratings were based on a scale of 1 to 5, with 1 indicating no symptoms and 5 indicating 100-percent infected. The results are summarized in Table 5, in which each datum is a mean value of the three observations for each treatment made on the two dates disease readings were obtained. […] The crude hydrodistillate composition contained all of the volatile chemicals identified above in Example 1. The increased fungicidal action of the crude hydrodistillate indicated synergistic action of the Prunus volatiles relative to purified or synthetic benzaldehyde.

O=Cc1ccccc1 [SB, benzaldehyde]
Powdery mildew disease rating on rose leaves, per repetition (Sphaerotheca pannosa; reading 8/22): 3 and 2 | Powdery mildew disease rating on rose leaves, per repetition (Sphaerotheca pannosa; reading 9/4): 3 and 2 | Control of rose powdery mildew (in words) (Sphaerotheca pannosa; spray on infected rose leaves): less effective in removing the fungus from the infected rose leaves | Mycelial Growth (radial) (Cytospora chrysosperma; 25 ppm in PDA, 1 day after treatment): 0.0 cm | Mycelial Growth (radial) (Cytospora chrysosperma; 25 ppm in PDA, 2 days after treatment): 1.2 cm | Mycelial Growth (radial) (Cytospora chrysosperma; 25 ppm in PDA, 3 days after treatment): 2.8 cm | Mycelial Growth (radial) (Cytospora chrysosperma; 25 ppm in PDA, 4 days after treatment): 3.8 cm | Mycelial Growth (radial) (Cytospora chrysosperma; 25 ppm in PDA, 5 days after treatment): 4.1 cm | Mycelial Growth (radial) (Cytospora chrysosperma; 25 ppm in PDA, 6 days after treatment): 4.1 cm | Mycelial Growth (radial) (Cytospora chrysosperma; 25 ppm in PDA, 7 days after treatment): 4.1 cm | Mycelial Growth (radial) (Cytospora chrysosperma; 25 ppm in PDA, 14 days after treatment): 4.1 cm | Mycelial Growth (radial) (Cytospora chrysosperma; 50 ppm in PDA, 1 day after treatment): 0.0 cm | Mycelial Growth (radial) (Cytospora chrysosperma; 50 ppm in PDA, 2 days after treatment): 1.1 cm | Mycelial Growth (radial) (Cytospora chrysosperma; 50 ppm in PDA, 3 days after treatment): 2.6 cm | Mycelial Growth (radial) (Cytospora chrysosperma; 50 ppm in PDA, 4 days after treatment): 3.1 cm | Mycelial Growth (radial) (Cytospora chrysosperma; 50 ppm in PDA, 5 days after treatment): 4.0 cm | Mycelial Growth (radial) (Cytospora chrysosperma; 50 ppm in PDA, 6 days after treatment): 4.1 cm | Mycelial Growth (radial) (Cytospora chrysosperma; 50 ppm in PDA, 7 days after treatment): 4.1 cm | Mycelial Growth (radial) (Cytospora chrysosperma; 50 ppm in PDA, 14 days after treatment): 4.1 cm | Mycelial Growth (radial) (Cytospora chrysosperma; 100 ppm in PDA, 1 day after treatment): 0.0 cm | Mycelial Growth (radial) (Cytospora chrysosperma; 100 ppm in PDA, 2 days after treatment): 1.2 cm | Mycelial Growth (radial) (Cytospora chrysosperma; 100 ppm in PDA, 3 days after treatment): 2.7 cm | Mycelial Growth (radial) (Cytospora chrysosperma; 100 ppm in PDA, 4 days after treatment): 3.5 cm | Mycelial Growth (radial) (Cytospora chrysosperma; 100 ppm in PDA, 5 days after treatment): 4.1 cm | Mycelial Growth (radial) (Cytospora chrysosperma; 100 ppm in PDA, 6 days after treatment): 4.1 cm | Mycelial Growth (radial) (Cytospora chrysosperma; 100 ppm in PDA, 7 days after treatment): 4.1 cm | Mycelial Growth (radial) (Cytospora chrysosperma; 100 ppm in PDA, 14 days after treatment): 4.1 cm | Mycelial Growth (radial) (Cytospora chrysosperma; 500 ppm in PDA, 1 day after treatment): 0.0 cm | Mycelial Growth (radial) (Cytospora chrysosperma; 500 ppm in PDA, 2 days after treatment): 0.9 cm | Mycelial Growth (radial) (Cytospora chrysosperma; 500 ppm in PDA, 3 days after treatment): 2.3 cm | Mycelial Growth (radial) (Cytospora chrysosperma; 500 ppm in PDA, 4 days after treatment): 3.1 cm | Mycelial Growth (radial) (Cytospora chrysosperma; 500 ppm in PDA, 5 days after treatment): 4.0 cm | Mycelial Growth (radial) (Cytospora chrysosperma; 500 ppm in PDA, 6 days after treatment): 4.0 cm | Mycelial Growth (radial) (Cytospora chrysosperma; 500 ppm in PDA, 7 days after treatment): 4.1 cm | Mycelial Growth (radial) (Cytospora chrysosperma; 500 ppm in PDA, 14 days after treatment): 4.1 cm | Mycelial Growth (radial) (Cytospora chrysosperma; 1,000 ppm in PDA, 1 day after treatment): 0.0 cm | Mycelial Growth (radial) (Cytospora chrysosperma; 1,000 ppm in PDA, 2 days after treatment): 0.7 cm | Mycelial Growth (radial) (Cytospora chrysosperma; 1,000 ppm in PDA, 3 days after treatment): 1.6 cm | Mycelial Growth (radial) (Cytospora chrysosperma; 1,000 ppm in PDA, 4 days after treatment): 2.2 cm | Mycelial Growth (radial) (Cytospora chrysosperma; 1,000 ppm in PDA, 5 days after treatment): 3.3 cm | Mycelial Growth (radial) (Cytospora chrysosperma; 1,000 ppm in PDA, 6 days after treatment): 4.0 cm | Mycelial Growth (radial) (Cytospora chrysosperma; 1,000 ppm in PDA, 7 days after treatment): 4.1 cm | Mycelial Growth (radial) (Cytospora chrysosperma; 1,000 ppm in PDA, 14 days after treatment): 4.1 cm | Mycelial Growth (radial) (Cytospora chrysosperma; 5,000 ppm in PDA, 1 day after treatment): 0.0 cm | Mycelial Growth (radial) (Cytospora chrysosperma; 5,000 ppm in PDA, 2 days after treatment): 0.0 cm | Mycelial Growth (radial) (Cytospora chrysosperma; 5,000 ppm in PDA, 3 days after treatment): 0.0 cm | Mycelial Growth (radial) (Cytospora chrysosperma; 5,000 ppm in PDA, 4 days after treatment): 0.0 cm | Mycelial Growth (radial) (Cytospora chrysosperma; 5,000 ppm in PDA, 5 days after treatment): 0.0 cm | Mycelial Growth (radial) (Cytospora chrysosperma; 5,000 ppm in PDA, 6 days after treatment): 0.1 cm | Mycelial Growth (radial) (Cytospora chrysosperma; 5,000 ppm in PDA, 7 days after treatment): 0.3 cm | Mycelial Growth (radial) (Cytospora chrysosperma; 5,000 ppm in PDA, 14 days after treatment): 0.0 cm | Mycelial Growth (radial) (Cytospora chrysosperma; 10,000 ppm in PDA, 1 day after treatment): 0.0 cm | Mycelial Growth (radial) (Cytospora chrysosperma; 10,000 ppm in PDA, 2 days after treatment): 0.0 cm | Mycelial Growth (radial) (Cytospora chrysosperma; 10,000 ppm in PDA, 3 days after treatment): 0.0 cm | Mycelial Growth (radial) (Cytospora chrysosperma; 10,000 ppm in PDA, 4 days after treatment): 0.0 cm | Mycelial Growth (radial) (Cytospora chrysosperma; 10,000 ppm in PDA, 5 days after treatment): 0.0 cm | Mycelial Growth (radial) (Cytospora chrysosperma; 10,000 ppm in PDA, 6 days after treatment): 0.0 cm | Mycelial Growth (radial) (Cytospora chrysosperma; 10,000 ppm in PDA, 7 days after treatment): 0.0 cm | Mycelial Growth (radial) (Cytospora chrysosperma; 10,000 ppm in PDA, 14 days after treatment): 0.0 cm | Powdery mildew disease rating on grape leaves, per repetition (Uncinula necator; reading 9/7, one month after first spray): 2 and 1 | Powdery mildew disease rating on grape leaves, per repetition (Uncinula necator; reading 10/5, about one month after second spray): 3 | Control of grape powdery mildew (in words) (Uncinula necator; spray on infected Pinot Noir leaves, up to second reading): reduced the spread of the mildew fungus, but did not control it
